Reference: patent US8557832B2, “Aryl methyl benzoquinazolinine M1 receptor positive allosteric modulators” (Merck Sharp & Dohme Corp., priority 2008, dated 2013)

Target: T1, acetylcholine muscarinic M1 receptor (Homo sapiens, UniProt P11229)
T1 construct: expressed in transfected cells; host or cells: CHOnfat (CHO cells; also called CHOK1/hM1)
T1 sequence (P11229 1-460): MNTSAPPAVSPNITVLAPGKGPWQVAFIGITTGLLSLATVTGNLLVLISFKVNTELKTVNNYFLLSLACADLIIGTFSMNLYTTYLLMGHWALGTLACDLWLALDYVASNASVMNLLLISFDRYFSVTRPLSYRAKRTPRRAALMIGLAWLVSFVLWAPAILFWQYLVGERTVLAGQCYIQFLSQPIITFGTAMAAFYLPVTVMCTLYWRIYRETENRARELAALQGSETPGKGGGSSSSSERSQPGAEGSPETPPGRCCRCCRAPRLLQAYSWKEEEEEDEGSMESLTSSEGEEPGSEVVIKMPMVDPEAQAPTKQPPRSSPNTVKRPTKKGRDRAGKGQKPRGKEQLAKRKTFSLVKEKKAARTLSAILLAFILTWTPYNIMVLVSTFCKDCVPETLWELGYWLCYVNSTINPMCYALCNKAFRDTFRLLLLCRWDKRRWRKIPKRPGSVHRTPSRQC
Assay: muscarinic FLIPR assay: potentiation of acetylcholine (EC20)-stimulated intracellular Ca2+ in CHOnfat/hM1 cells
Assay type: cell-based
Conditions: 4 min preincubation, then EC20 acetylcholine (3 nM final), read-out: IP Value (inflection point)
Method: The assay studies the effect of one or several concentrations of test compounds on basal or acetylcholine-stimulated Ca^2+ levels using FLIPR.
Compounds are prepared and subjected to a preincubation period of 4 min. Thereafter, a single EC20 concentration of acetylcholine is added to each well (3 nM final). The intracellular Ca^2+ level of each sample is measured and compared to an acetylcholine control to determine any modulatory activity.
Cells: CHOnfat/hM1, hM2, hM3 or hM4 cells are plated 24 hr before the assay at a density of 18,000 cells/well (100 μL) in a 384 well plate. CHOnfat/hM1 and CHOnfat/hM3 Growth Medium: 90% DMEM (Hi Glucose); 10% HI FBS; 2 mM L-glutamine; 0.1 mM NEAA; Pen-Strep; and 1 mg/ml Geneticin, are added. For M2Gqi5CHOnfat and M4Gqi5CHOnfat cells, an additional 600 ug/ml hygromycin is added.
Equipment: 384 well plate, 120 μL addition plate; 96-well Whatman 2 ml Uniplate Incubator, 37° C., 5% CO2; Skatron EMBLA-384 Plate Washer; Multimek Pipetting System; Genesis Freedom 200 System; Mosquito System; Temo Nanoliter Pipetting System; and FLIPR^384 Fluorometric Imaging Plate Reader System are used.
Buffers. Assay Buffer: Hanks Balanced Salt Solution, with 20 mM Hepes, 2.5 mM Probenecid (Sigma P-8761) first dissolved in 1 N NaOH, 1% Bovine Serum Albumin (Sigma A-9647). Dye Loading Buffer: Assay Buffer plus 1% Fetal Bovine Serum and Fluo-4AM/Pluronic Acid Mixture. 2 mM Fluo-4AM ester stock in DMSO (Molecular Probes F-14202) Concentration of 2 μM in buffer for a final concentration of 1 μM in Assay. 20% Pluronic Acid Solution stock, with concentration of 0.04% in Buffer, 0.02% in Assay.
65 μL of 2 mM Fluo-4AM are mixed with 130 μL of 20% Pluronic Acid. The resulting solution and 650 μL FBS is added to the assay buffer for a total volume of 65 mL. Positive Controls: 4-Br-A23187: 10 mM in DMSO; final concentration 10 μM. Acetylcholine: 10 mM in water, working stock at both 20 μM and 30 μM in assay buffer, final concentration of 10 μM. This is used to check the maximum stimulation of the CHOK1/hM1 cells. 20 μM (2×) acetylcholine is added in the preincubation part of the assay, and the 30 μM (3×) stock is added in the second part. (EC20) Acetylcholine: 10 mM in water, working stock of 9 nM (3×), and final concentration in assay is 3 nM. This is used after the preincubation with test compounds. Addition of the EC20 Acetylcholine to each well with a test compound will ascertain any modulator activity. 24 wells contain 3 nM Acetylcholine alone as a control.
Determining Activity of Putative Compounds:
Screening Plate: Compounds are titrated in 96-well plates (columns 2-11), 100% DMSO, started at a concentration of 15 mM (150× stock concentration), and 3-fold serial dilutions using Genesis Freedom200 System. Four 96-well plates are combined into a 384-well plate using Mosquito Nanolitre Pipetting System by transferring 1 μl of serial diluted compounds to each well, and 1 mM acetylcholine (100× stock concentration) were added as a control. Using Temo, 49 μl assay buffer is added to each well of the 384-well plate right before assay.
In a 96-well Whatman 2 ml Uniplate, 9 nM Acetylcholine (3×) is pipetted into wells corresponding to the screening compounds, and into control wells. The 30 μM acetylcholine control (3×) is added into control wells, and the 3× agonist plate is transferred into a 384 well plate.
Cells are washed three times with 100 μL of buffer, leaving 30 μL of buffer in each well. Using Multimek, 30 μL of Dye Loading Buffer is added into each well and incubated at 37° C., 5% CO2 for up to one hr.
After 60 min, the cells are washed three times with 100 μL of buffer, leaving 30 μL of buffer in each well. The cell plate, screening plate, and agonist addition plates are placed on the platform in the FLIPR and the door closed. A signal test to check background fluorescence and basal fluorescence signal is performed. Laser intensity is adjusted if necessary. […]

Row | Structure (SMILES) | EC50 [nM]
1 | O=c1c2cc(Cc3ccccn3)c3ccccc3c2ncn1[C@H]1CCCC[C@@H]1O [Example 18, 3-[(1S,2S)-2-hydroxycyclohexyl]-6-(pyridin-2-ylmethyl)benzo[h]quinazolin-4(3H)-one] | 228
2 | O=C1CCCCC1n1cnc2c(cc(Cc3ccc(Cl)nc3)c3ccccc32)c1=O (stereo not shown) [Example 10, 6-[(6-chloropyridin-3-yl)methyl]-3-(2-oxycyclohexyl)benzo[h]quinazolin-4(3H)-one] | 1300
3 | Cc1ccc(Cc2cc3c(=O)n([C@H]4CCCC[C@@H]4O)cnc3c3ccccc23)cn1 (racemic) [Example 1, rac-3-[trans-2-hydroxycyclohexyl]-6-[(6-methylpyridin-3-yl)methyl]benzo[h]quinazolin-4(3H)-one] | 51
4 | CC(=O)O[C@H]1CCCC[C@@H]1n1cnc2c(cc(Cc3ccc(Cl)nc3)c3ccccc32)c1=O (racemic) [Example 11, trans-2-[6-[(6-chloropyridin-3-yl)methyl]-4-oxobenzo[h]quinazolin-3(4H)-yl]cyclohexyl rac-acetate] | 3600
5 | COc1ccc(Cc2cc3c(=O)n(-c4cc(C)[nH]n4)cnc3c3ccccc23)cc1 [Example 3] | 1800
6 | CC(=O)N[C@H]1CCCC[C@@H]1n1cnc2c(cc(Cc3ccc(Cl)nc3)c3ccccc32)c1=O [Example 12, N-{(1S,2S)-2-[6-[(6-chloropyridin-3-yl)methyl]-4-oxobenzo[h]quinazolin-3(4H)-yl]cyclohexyl}acetamide] | > 10000
7 | Cc1ccc(Cc2cc3c(=O)n([C@H]4CCCC[C@@H]4O)cnc3c3ccccc23)c[n+]1[O-] [Example 17, 3-[(1S,2S)-2-hydroxycyclohexyl]-6-[(6-methyl-1-oxidopyridin-3-yl)methyl]benzo[h]quinazolin-4(3H)-one] | 63
8 | Cc1ccc(Cc2cc3c(=O)n([C@H]4CCCC[C@@H]4O)cnc3c3ccccc23)cn1 [Example 2, 3-[(1S,2S)-2-hydroxycyclohexyl]-6-[(6-methylpyridin-3-yl)methyl]benzo[h]quinazolin-4(3H)-one] | 21
9 | Cn1cc(Cc2cc3c(=O)n([C@H]4CCCC[C@@H]4O)cnc3c3ccccc23)ccc1=O (racemic) [Example 16, rac-3-[trans-2-hydroxycyclohexyl]-6-[(1-methyl-6-oxo-1,6-dihydropyridin-3-yl)methyl]benzo[h]quinazolin-4(3H)-one] | 84
10 | COc1ccc(Cc2cc3c(=O)n(-c4cccnc4)cnc3c3ccccc23)cc1 [Example 4, 6-(4-methoxybenzyl)-3-pyridin-3-ylbenzo[h]quinazolin-4(3H)-one] | 3500
11 | Cc1nc2c(cc(Cc3ccc(Cl)nc3)c3ccccc32)c(=O)n1[C@H]1CCCC[C@@H]1O [Example 19, 6-[(6-chloropyridin-3-yl)methyl]-3-[(1S,2S)-2-hydroxycyclohexyl]-2-methylbenzo[h]quinazolin-4(3H)-one] | 1430
12 | CS(=O)(=O)c1ccc(Cc2cc3c(=O)n([C@H]4CCCC[C@@H]4O)cnc3c3ccccc23)cn1 (racemic) [Example 8, rac-3-[trans-2-hydroxycyclohexyl]-6-{[6-methylsulfonyl)pyridine-3-yl]methyl}benzo[h]quinazolin-4(3H)-one] | 93

Further lines, results first:

Row | EC50 [nM] | Structure (SMILES)
13 | 24 | O=c1c2cc(Cc3ccc(CO)nc3)c3ccccc3c2ncn1[C@H]1CCCC[C@@H]1O (racemic) [Example 15, rac-3-[trans-2-hydroxycyclohexyl]-6-{[6-(hydroxymethyl)pyridine-3-yl]methyl}benzo[h]quinazolin-4(3H)-one]
14 | 8 | Cn1cc(-c2ccc(Cc3cc4c(=O)n([C@H]5CCCC[C@@H]5O)cnc4c4ccccc34)cn2)cn1 (racemic) [Example 5, rac-3-[trans-2-hydroxycyclohexyl]-6-{[6-(1-methyl-1H-pyrazol-4-yl)pyridine-3-yl]methyl}benzo[h]quinazolin-4(3H)-one]
15 | 74 | N#Cc1ccc(Cc2cc3c(=O)n([C@H]4CCCC[C@@H]4O)cnc3c3ccccc23)cn1 (racemic) [Example 7, rac-5-({3-[trans-2-hydroxycyclohexyl]-4-oxo-3,4-dihydrobenzo[h]quinazolin-6-yl}methyl)pyridine-2-carbonitrile]
16 | 31 | O=c1c2cc(Cc3ccc(-n4cccn4)nc3)c3ccccc3c2ncn1[C@H]1CCCC[C@@H]1O (racemic) [Example 6, rac-3-[trans-2-hydroxycyclohexyl]-6-{[6-(1H-pyrazol-1-yl)pyridin-3-yl]methyl}benzo[h]quinazolin-4(3H)-one]
17 | 73 | COc1ccc(Cc2cc3c(=O)n([C@H]4CCCC[C@@H]4O)cnc3c3ccccc23)cn1 (racemic) [Example 9, rac-3-[trans-2-hydroxycyclohexyl]-6-[(6-methoxypyridin-3-yl)methyl]benzo[h]quinazolin-4(3H)-one]
18 | 21 | CC(C)c1ccc(Cc2cc3c(=O)n([C@H]4CCCC[C@@H]4O)cnc3c3ccccc23)cn1 [Example 13]
19 | 46 | CC(C)(O)c1ccc(Cc2cc3c(=O)n([C@H]4CCCC[C@@H]4O)cnc3c3ccccc23)cn1 [Example 14]
